Assay results published in PubChem BioAssay (NCI).
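Test compounds were applied to cells in 96-well plates for 48 hours at 5 doses. GI50: concentration for 50% inhibition of growth. TGI: concentration producing complete growth inhibition.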

Key:
Experiment in all cases: NCI tumour cell line growth inhibition, 48 h
A549 NSCLC = tested on: A549 NSCLC
EKVX NSCLC = tested on: EKVX NSCLC
OVCAR-3 ovarian = tested on: OVCAR-3 ovarian
OVCAR-4 ovarian = tested on: OVCAR-4 ovarian
OVCAR-8 ovarian = tested on: OVCAR-8 ovarian
SF-295 CNS = tested on: SF-295 CNS
SK-MEL-2 melanoma = tested on: SK-MEL-2 melanoma
SK-MEL-28 melanoma = tested on: SK-MEL-28 melanoma
SK-MEL-5 melanoma = tested on: SK-MEL-5 melanoma
HOP-92 NSCLC = tested on: HOP-92 NSCLC

| SMILES | TGI (A549 NSCLC) [µM] | TGI (EKVX NSCLC) [µM] | TGI (OVCAR-3 ovarian) [µM] | TGI (OVCAR-4 ovarian) [µM] | TGI (OVCAR-8 ovarian) [µM] | TGI (SF-295 CNS) [µM] | TGI (SK-MEL-2 melanoma) [µM] | TGI (SK-MEL-28 melanoma) [µM] | TGI (SK-MEL-5 melanoma) [µM] | TGI (HOP-92 NSCLC) [µM] | GI50 (A549 NSCLC) [µM] | GI50 (EKVX NSCLC) [µM] | GI50 (HOP-92 NSCLC) [µM] | GI50 (OVCAR-3 ovarian) [µM] | GI50 (OVCAR-4 ovarian) [µM] | GI50 (OVCAR-8 ovarian) [µM] | GI50 (SF-295 CNS) [µM] | GI50 (SK-MEL-2 melanoma) [µM] | GI50 (SK-MEL-28 melanoma) [µM] | GI50 (SK-MEL-5 melanoma) [µM] |
| --- | --- | --- | --- | --- | --- | --- | --- | --- | --- | --- | --- | --- | --- | --- | --- | --- | --- | --- | --- | --- |
| CCN(CCO)C(=O)C1(c2ccccc2)CCCCC1 | > 10 | > 10 | > 10 | > 10 | > 10 | > 10 | > 10 | > 10 | > 10 |  |  |  |  |  |  |  |  |  |  |  |
| Ic1ccc2c(c1)N(c1ccccc1)c1cc(N=c3ccc4nc5ccc(I)cc5n(-c5ccccc5)c-4c3)ccc1N2 | > 100 | > 100 | 16.1 | > 100 | > 100 | > 100 | > 100 | > 100 | > 100 | > 100 |  |  |  |  |  |  |  |  |  |  |
| OCCCNc1nc(=S)[nH]c2[nH]ncc12 | > 100 | > 100 | > 100 | > 100 | > 100 | > 100 | > 100 | > 100 | > 100 | > 100 | 44.7 | 50.7 | 65.6 | 31.4 | 53.7 | 37.8 | 49 | 53.2 | 57.1 | 31.3 |
| CC(CCC(=O)O)(c1ccc(O)cc1)c1ccc(O)cc1 | > 100 | > 100 | > 100 | > 100 | > 100 | > 100 | > 100 | > 100 | > 100 | > 100 |  |  |  |  |  |  |  |  |  |  |
| C[N+](C)(C)CCCSc1nc2ccccc2[nH]1 | > 100 | > 100 | > 100 | > 100 | > 100 | > 100 | > 100 | > 100 | > 100 | > 100 |  |  |  |  |  |  |  |  |  |  |
| O=S(=O)(O)C1=C2Sc3ccccc3N=C2c2ccccc2C1 | 34.3 | 32 | 31.3 | 33.8 | 31.5 | 26.7 | 35.7 | 31.4 | 26.4 | 22 |  |  |  |  |  |  |  |  |  |  |
| COc1ccc(CC2CCc3nc(N)nc(N)c3C2)cc1OC (configuration not stated) | > 53.1 | > 91.2 | > 100 | > 100 | > 62.5 | > 41.4 | > 91.6 | > 100 | 18.5 | > 100 |  |  |  |  |  |  |  |  |  |  |
| c1nc(N2CC2)c2cnn(C3CCCCO3)c2n1 (configuration not stated) | > 100 | > 100 | > 100 | > 100 | > 100 | > 100 | > 100 | > 100 | > 100 | > 100 |  |  |  |  |  |  |  |  |  |  |
| CN(CCC(=O)O)C1=Nc2ccc(Cl)cc2C(c2ccccc2)=[N+]([O-])C1 | > 100 | > 100 | > 100 | > 100 | > 100 | > 100 | > 100 | > 100 | > 100 | > 100 |  |  |  |  |  |  |  |  |  |  |
| CCOC(=O)NC(=O)c1cn(CCNCCO)c(=O)[nH]c1=O | > 100 | > 100 | > 100 | > 100 | > 100 | > 100 | > 100 |  | > 100 | > 100 |  |  |  |  |  |  |  |  |  |  |
| O=C(N/N=C/C=C/c1ccccc1)[C@H](O)[C@@H](O)C(=O)N/N=C/C=C/c1ccccc1 | > 100 | > 100 |  |  | > 100 | > 100 | > 100 | > 100 | > 100 |  |  |  |  |  |  |  |  |  |  |  |
| C[C@]12CC[C@H](OC(=O)Cc3ccc(N(CCCl)CCCl)cc3)CC1=CC[C@@H]1[C@@H]2CC[C@]2(C)C(=O)CC[C@@H]12 | > 100 | > 100 | > 100 |  | > 100 |  | > 100 | > 100 | > 100 | > 100 |  |  |  |  |  |  |  |  |  |  |
| CN1CCN(c2ccc3[nH]c(-c4cc(O)c5c(nc(CO)n5C)c4O)nc3n2)CC1 | > 100 | 85.8 | > 100 | > 100 | > 100 | > 100 | 51.7 | > 100 |  | > 100 |  |  |  |  |  |  |  |  |  |  |
| O=C(O)CCC(=O)Nc1ccc2ccccc2c1 | > 100 | > 100 | > 100 | > 100 | > 100 | > 100 | > 100 | > 100 | > 100 | > 100 |  |  |  |  |  |  |  |  |  |  |
